# Laboratory results: PMC6736568, “Discovery of Novel Anti-cryptosporidial Activities From Natural Products by in vitro High-Throughput Phenotypic Screening” (Frontiers in Microbiology, 2019)
# Like-named read-outs stand apart in the source and are kept apart here.
# What was measured:
# in vitro = conditions: for cytotoxicity at 41 h, 10 µM: human
# Cryptosporidium parvum = test: qRT-PCR assay of the growth of C. parvum in vitro in HCT-8 host cells (primary and secondary screening, EC50); format: cell-based; conditions: Cryptosporidium parvum, HCT-8; for inhibition at 10 µM: primary screening at 10 uM, read-out: Inhibition (%); for inhibition at 3.3 µM: secondary screening at 3.3 uM, read-out: % Inhibition (3.3 uM)
# [1] = primary screening at 10 uM, treated vs control
Structure (SMILES),Hs18S ΔCT (HCT-8 host cells (Hs18S); [1]),cytotoxicity at 10 µM (in vitro),inhibition at 10 µM (Cryptosporidium parvum),"Hs18S ΔCT (HCT-8 host cells (Hs18S); human, 41 h, 10 μM)","cytotoxicity at 41 h, 10 µM (in vitro)",Hs18S ΔCT (HCT-8 host cells (Hs18S)),inhibition at 3.3 µM (Cryptosporidium parvum)
C[C@@H]1CC[C@@]2(OC1)O[C@H]1[C@@H](O)[C@H]3[C@@H]4CC[C@H]5C[C@@H](O[C@@H]6O[C@H](CO)[C@H](O[C@@H]7O[C@H](CO)[C@@H](O)[C@H](O[C@@H]8OC[C@@H](O)[C@H](O)[C@H]8O)[C@H]7O[C@@H]7O[C@H](CO)[C@H](O)[C@H](O[C@@H]8O[C@H](CO)[C@@H](O)[C@H](O)[C@H]8O)[C@H]7O)[C@H](O)[C@H]6O)[C@H](O)C[C@]5(C)[C@H]4CC[C@]3(C)[C@H]1[C@@H]2C [DIGITONIN],-0.12,-8.8%,-16.6%,,,,
CCCCCCCCCCCCCCCC(=O)OCC(O)CO (centres unmarked) [1-MONOPALMITIN],,,14.2%,-0.10,-7.1%,,
CC1=CC(=O)c2ccccc2C1=O [MENADIONE],,,-2.86%,0.49,29%,,
COc1ccc2c3c([nH]c2c1)C(C)=NCC3 [HARMALINE],0.01,0.9%,-31.9%,,,,
C/C1=C\CCC(=O)C2CC(C)(C)C2CC1 (centres unmarked) [15-NORCARYOPHYLLEN-3-ONE],,,-15.7%,-0.05,-3.6%,,
CNc1ccccc1C(=O)O,,13%,-14.8%,,,0.20,
O=C1c2ccccc2C(=O)c2c1ccc(O)c2O [ALIZARIN],-0.13,-9.1%,-42.4%,,,,
Cc1c(C(=O)O)c(O)cc2c1C(=O)c1c(O)c([C@@H]3O[C@H](CO)[C@@H](O)[C@H](O)[C@H]3O)c(O)c(O)c1C2=O [CARMINIC ACID],,,-24.9%,-0.10,-7.5%,,
COc1cc(-c2coc3cc(O)c(OC)c(O)c3c2=O)cc(O)c1OC [IRIGENIN],,,-15%,-0.43,-34.9%,,
COc1c2occc2c(OC)c2c(=O)cc(C)oc12 [KHELLIN],,,-11.8%,0.22,14.1%,,
CCCCCc1c2c(cc(O)c1C(=O)O)OC(=O)c1c(cc(OC)cc1C(=O)CCCC)O2 [LOBARIC ACID],,,18.2%,0.20,13.1%,,
COc1ccc(C(=O)CC(=O)O)c2c1C=CC(C)(C)O2 [URSINOIC ACID],,,14.2%,-0.46,-37.5%,,
C=C[C@H]1C[N@@]2CC[C@H]1C[C@@H]2[C@@H](O)c1ccnc2ccc(OC)cc12 [QUINIDINE GLUCONATE],,,11.2%,-0.03,-2%,,
OC[C@@H]1CCCN2CCCC[C@H]12 [LUPININE],,,26.1%,0.18,11.8%,,
O=C1C=C2C=C[C@@H]3C[C@@]2(O1)[C@H]1CCCCN31 [SECURININE],0.05,3.6%,9.24%,,,,
COc1ccc2c(c1)OC/C(=C\c1ccc(OC)c(O)c1)C2=O [SAPPANONE A DIMETHYL ETHER],,,11.1%,0.18,11.8%,,
Cc1cc(O)c(C=O)c2c1C(=O)Oc1c(COC(=O)/C=C/C(=O)O)c(O)c(C(=O)O)c(C)c1O2 [FUMARPROTOCETRARIC ACID],,,-5.48%,0.10,6.9%,,
"CCOC(=O)CCCCCCCCCCCCC1C=CCC1 (centres unmarked) [CHAULMOOGRIC ACID, ETHYL ESTER]",,,-0.95%,-0.15,-10.8%,,

Structure (SMILES),Hs18S ΔCT (HCT-8 host cells (Hs18S); [1]),cytotoxicity at 10 µM (in vitro),inhibition at 10 µM (Cryptosporidium parvum),"Hs18S ΔCT (HCT-8 host cells (Hs18S); human, 41 h, 10 μM)","cytotoxicity at 41 h, 10 µM (in vitro)",Hs18S ΔCT (HCT-8 host cells (Hs18S)),inhibition at 3.3 µM (Cryptosporidium parvum)
N[C@@H](Cc1ccc(O)c(O)c1)C(=O)O [LEVODOPA],,,-9.67%,-0.21,-15.4%,,
COC1(C)CCC2OC2(C)CCC2C1CC2(C)C (centres unmarked) [2-METHOXY-5 (6)EPOXY-TETRAHYDROCARYOPHYLLENE],,,-24.7%,-0.15,-11.1%,,
CC1(C)CC[C@]2(C)CC[C@]3(C)C(=CC[C@@H]4[C@@]5(C)CC[C@H](O)C(C)(C)[C@@H]5CC[C@]43C)[C@@H]2C1 [beta-AMYRIN],-0.12,-8.3%,-38.2%,,,,
OC[C@H]1O[C@@H](Oc2ccc(O)cc2)[C@H](O)[C@@H](O)[C@@H]1O [ARBUTIN],,,16.1%,0.01,0.5%,,
CC(=O)O[C@]1(C)CC[C@@]23C[C@@H]1C(C)(C)[C@@H]2CC[C@H]3C [CEDRYL ACETATE],0.05,3.6%,9.38%,,,,
C[C@H]1C(=O)O[C@@H]2CCN3CC=C(COC(=O)[C@](C)(O)[C@]1(C)O)[C@H]23 [MONOCROTALINE],0.14,9.5%,12%,,,,
C[C@@H]1O[C@@H](O[C@H]2[C@H](Oc3cc(O)c4c(=O)cc(-c5ccc(O)cc5)oc4c3)O[C@H](CO)[C@@H](O)[C@@H]2O)[C@H](O)[C@H](O)[C@H]1O [RHOIFOLIN],,,54.6%,-0.26,-20%,,
CC1(C)C[C@@H]2C(=O)CC[C@H]3O[C@]3(C)CC[C@H]21 [KOBUSONE],,,-24.4%,0.01,0.5%,,
CC[C@@H]1C(=O)OC[C@@H]1Cc1cncn1C [PILOCARPINE NITRATE],,,-30.2%,-0.10,-7.3%,,
Oc1ccc(/C=C/c2cc(O)cc(O)c2)cc1 [RESVERATROL],-0.13,,93.5%,,-9.6%,,-24%
CC(=O)O[C@@H]1[C@H]2CC[C@H]3[C@@](C)(O)[C@@H]4C[C@H](O)C(C)(C)[C@@]4(O)[C@H](O)C[C@@]13C[C@@]2(C)O [GR[…]],-0.03,-2.4%,3.95%,,,,
CCCCC[C@H](CC(=O)NO)C(=O)N[C@H](C(=O)N1CCC[C@H]1CO)C(C)C [ACTINONIN],,,31.3%,-0.06,-4.6%,,
CNc1ccccc1C(=O)N1CCc2c([nH]c3ccccc23)C1=O [RHETSININE],,,-31.2%,0.51,29.6%,,
Cc1cc(O)c(C=O)c2c1C(=O)Oc1c(C)c(O)c3c(c1O2)C(O)OC3=O (centres unmarked) [NORSTICTIC ACID],,,-20.8%,-0.18,-13.4%,,
O=C1C=C2CC3(O)COc4c(ccc(O)c4O)C3=C2C=C1O (centres unmarked) [HEMATEIN],,,10.1%,0.13,8.6%,,
C=CCc1ccc2c(c1)OCO2 [SAFROLE],-0.44,-35.3%,76.2%,,,,8%
C[C@@H]1[C@H](O)[C@@H](C)/C=C/C=C/C=C/C=C/C=C/C=C/C=C/[C@H](O[C@@H]2O[C@H](C)[C@@H](O)[C@H](N)[C@@H]2O)C[C@@H]2O[C@](O)(C[C@@H](O)C[C@@H](O)[C@H](O)CC[C@@H](O)C[C@@H](O)CC(=O)O[C@H]1C)C[C@H](O)[C@H]2C(=O)O [AMPHOTERICIN B],,,-4.47%,0.11,7.1%,,
